Results reported in US20240209001A1, “HETEROCYCLIC DERIVATIVES AS JANUS KINASE INHIBITORS” (CHIESI FARMACEUTICI S.P. A., priority 2021, published 2024).

What was measured:
JAK 2 = JAK 2 (Homo sapiens (Human), UniProt O60674); test: Biochemical potency on JAK2, TR-FRET LANCE Ultra kinase assay (compounds 1-92); details: ATP at Km, read-out: JAK2 inhibitory activity (pIC50 class) (converted)
Method: (§1) Biochemical Potency on JAK1, JAK2, JAK3 and Tyk2 Assay Principle The objective of this study was to assess the capability of compounds to inhibit all 4 JAK isoforms activity in a cell-free environment. Assay for JAK 1, JAK 2, JAK 3 and TYK2 were performed by Time-resolved fluorescence resonance energy transfer (TR-FRET) technology. It consists in the interaction of two labelled binding partners detected by the energy transfer from an excited donor to an acceptor dye and measurement of light emission by the acceptor dye. LANCE Ultra kinase assay was used. In presence of JAK 1, JAK 2, JAK 3 and TYK2 kinases and ATP (corresponding to Km), the ULight peptide substrate (LANCE Ulight-JAK-1 ([…]) Peptide, Perkin Elmer, TRF0121) is phosphorylated. It is then captured by Eu-anti-phospho-substrate antibody (LANCE Eu-W1024 Anti-phosphotyrosine (PT66), Perkin Elmer, AD0069), which bring the Eu-chelate donor and ULight acceptor dyes into close proximity. Upon excitation at 320 nm, the Eu-chelate transfers its energy to the ULight dye, resulting in a fluorescent light emission at 665 nm. Compound Testing Serial dilutions of compounds in pure DMSO are prepared from 10 mM DMSO stock solutions. Compounds were tested in 384-well plate for 11 consecutive 5-fold dilutions starting from 20 μM highest concentration (20 μM-[…]). 200 nL of compound were transferred from mother plate to test plate by using Mosquito (TTP labtech). Assay was performed in 384-well Perkin Elmer test plate in 20 μL assay volume (kinase reaction) and 40 μL total volume (stopping reagent and antibody detection reagents). In 10 μL of substrate solution (peptide+ATP) 30/50/20/10 nM of peptide and 20/0.7/0.2/12 μM of ATP were added for JAK 1, JAK 2, JAK 3 and TYK2 respectively. 10 μL of enzyme solution was added to kinase reaction at these concentrations: 0.15/0.083/0.025/0.144 ng/μL of JAK 1, JAK 2, JAK 3 and TYK2 respectively. After shaking and 1.5 h of incubation at r.t., 20 μL of Stop (10 μL EDTA) and Detection mixture (10 μL Europium-anti-phospho antibody, final: 0.5 nM) were added. Reading was performed after 1 h of incubation on a EnVision 2104 reader (Perkin Elmer). Calculation of IC50 data, curves and QC analysis was performed by using Excel tool and GraphPadPrism software, v9. Briefly, individual concentration-effect curves are generated by plotting the logarithm of the tested concentration of tested compounds (X) vs. corresponding percent inhibition values (Y) using least squares (ordinary) fit. Best fit IC50 values are calculated using Log(inhibitor) vs. normalized response-Variable slope equation, where Y=100/(1+10^((Log IC50-X)*HillSlope)). QC criteria parameters (Z', S:B, R2, HillSlope) were checked for every IC50 curve. Calculation of IC50 data, curves and QC analysis were made using Excel tools and GraphPadPrism software. QC criteria parameters: Z'≥0.5, Hill Slope range 0.5 to 5, S:B>2.

JAK 3 = JAK 3 (Homo sapiens (Human), UniProt P52333); test: Biochemical potency on JAK3, TR-FRET LANCE Ultra kinase assay (compounds 1-92); details: ATP at Km, read-out: JAK3 inhibitory activity (pIC50 class) (converted)
Method: as §1

JAK 1 = JAK 1 (Homo sapiens (Human), UniProt P23458); test: Biochemical potency on JAK1, TR-FRET LANCE Ultra kinase assay (compounds 1-92); details: ATP at Km, read-out: JAK1 inhibitory activity (pIC50 class) (converted)
Method: as §1

TYK2 = TYK2 (Homo sapiens (Human), UniProt P29597); test: Biochemical potency on Tyk2, TR-FRET LANCE Ultra kinase assay (compounds 1-92); details: ATP at Km, read-out: Tyk2 inhibitory activity (pIC50 class) (converted)
Method: as §1

Sequence of JAK 1 (P23458 whole entry): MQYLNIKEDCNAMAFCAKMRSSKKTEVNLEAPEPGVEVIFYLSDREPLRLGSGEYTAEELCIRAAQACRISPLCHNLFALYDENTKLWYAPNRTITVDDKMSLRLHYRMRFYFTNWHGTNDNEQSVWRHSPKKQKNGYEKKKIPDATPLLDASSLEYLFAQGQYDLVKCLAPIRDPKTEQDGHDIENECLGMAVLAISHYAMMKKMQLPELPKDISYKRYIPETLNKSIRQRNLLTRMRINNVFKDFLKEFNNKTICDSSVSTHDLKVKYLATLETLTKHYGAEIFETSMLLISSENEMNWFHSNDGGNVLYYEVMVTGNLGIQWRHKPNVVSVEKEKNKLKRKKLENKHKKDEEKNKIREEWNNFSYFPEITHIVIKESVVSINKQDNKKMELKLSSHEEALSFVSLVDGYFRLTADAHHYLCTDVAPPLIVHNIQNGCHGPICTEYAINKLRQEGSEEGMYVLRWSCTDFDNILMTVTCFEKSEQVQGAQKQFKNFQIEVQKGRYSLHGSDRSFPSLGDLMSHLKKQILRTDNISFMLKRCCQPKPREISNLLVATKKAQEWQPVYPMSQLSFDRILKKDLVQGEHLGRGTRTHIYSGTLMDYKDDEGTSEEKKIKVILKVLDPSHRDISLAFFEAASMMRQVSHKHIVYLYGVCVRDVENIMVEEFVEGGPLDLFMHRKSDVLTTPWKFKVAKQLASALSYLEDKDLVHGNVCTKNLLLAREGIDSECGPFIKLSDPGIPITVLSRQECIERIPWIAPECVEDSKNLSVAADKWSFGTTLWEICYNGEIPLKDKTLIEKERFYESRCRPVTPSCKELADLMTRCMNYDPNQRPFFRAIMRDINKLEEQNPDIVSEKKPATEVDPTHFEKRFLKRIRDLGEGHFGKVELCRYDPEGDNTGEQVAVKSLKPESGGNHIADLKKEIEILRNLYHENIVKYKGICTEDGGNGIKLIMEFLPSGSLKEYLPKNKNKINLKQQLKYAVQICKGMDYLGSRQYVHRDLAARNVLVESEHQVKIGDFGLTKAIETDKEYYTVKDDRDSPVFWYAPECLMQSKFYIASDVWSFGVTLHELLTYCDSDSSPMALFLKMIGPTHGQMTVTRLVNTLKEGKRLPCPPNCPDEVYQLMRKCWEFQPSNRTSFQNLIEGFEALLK
Sequence of JAK 2 (O60674 whole entry, canonical isoform): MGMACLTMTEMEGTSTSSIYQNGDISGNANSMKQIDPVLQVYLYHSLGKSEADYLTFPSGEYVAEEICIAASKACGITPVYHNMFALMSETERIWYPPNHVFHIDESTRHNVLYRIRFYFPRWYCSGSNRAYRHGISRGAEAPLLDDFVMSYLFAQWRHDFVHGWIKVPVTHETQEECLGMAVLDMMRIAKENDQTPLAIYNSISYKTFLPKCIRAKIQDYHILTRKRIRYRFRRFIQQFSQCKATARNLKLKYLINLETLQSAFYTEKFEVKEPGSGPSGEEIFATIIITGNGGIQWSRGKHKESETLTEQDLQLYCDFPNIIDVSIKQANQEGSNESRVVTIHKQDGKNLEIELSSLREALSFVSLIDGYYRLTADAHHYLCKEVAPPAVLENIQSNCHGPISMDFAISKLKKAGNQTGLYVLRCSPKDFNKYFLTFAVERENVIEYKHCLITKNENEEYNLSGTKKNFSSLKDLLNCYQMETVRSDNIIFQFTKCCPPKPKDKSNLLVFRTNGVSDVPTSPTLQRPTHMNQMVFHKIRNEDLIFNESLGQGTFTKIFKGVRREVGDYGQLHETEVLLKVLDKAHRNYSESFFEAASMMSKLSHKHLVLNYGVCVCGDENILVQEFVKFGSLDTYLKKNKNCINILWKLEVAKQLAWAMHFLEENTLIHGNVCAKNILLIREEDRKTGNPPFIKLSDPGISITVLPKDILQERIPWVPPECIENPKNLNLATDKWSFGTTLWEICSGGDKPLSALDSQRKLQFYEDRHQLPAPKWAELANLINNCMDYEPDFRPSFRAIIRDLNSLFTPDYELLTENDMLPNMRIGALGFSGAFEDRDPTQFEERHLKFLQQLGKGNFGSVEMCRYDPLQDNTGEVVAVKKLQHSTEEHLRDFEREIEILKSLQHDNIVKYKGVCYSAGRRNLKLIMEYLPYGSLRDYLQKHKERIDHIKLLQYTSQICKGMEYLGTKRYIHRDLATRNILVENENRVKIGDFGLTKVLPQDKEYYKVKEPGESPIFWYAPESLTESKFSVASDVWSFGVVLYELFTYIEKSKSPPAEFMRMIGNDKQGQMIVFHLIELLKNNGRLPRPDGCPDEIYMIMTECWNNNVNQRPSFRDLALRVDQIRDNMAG
Sequence of JAK 3 (P52333 whole entry): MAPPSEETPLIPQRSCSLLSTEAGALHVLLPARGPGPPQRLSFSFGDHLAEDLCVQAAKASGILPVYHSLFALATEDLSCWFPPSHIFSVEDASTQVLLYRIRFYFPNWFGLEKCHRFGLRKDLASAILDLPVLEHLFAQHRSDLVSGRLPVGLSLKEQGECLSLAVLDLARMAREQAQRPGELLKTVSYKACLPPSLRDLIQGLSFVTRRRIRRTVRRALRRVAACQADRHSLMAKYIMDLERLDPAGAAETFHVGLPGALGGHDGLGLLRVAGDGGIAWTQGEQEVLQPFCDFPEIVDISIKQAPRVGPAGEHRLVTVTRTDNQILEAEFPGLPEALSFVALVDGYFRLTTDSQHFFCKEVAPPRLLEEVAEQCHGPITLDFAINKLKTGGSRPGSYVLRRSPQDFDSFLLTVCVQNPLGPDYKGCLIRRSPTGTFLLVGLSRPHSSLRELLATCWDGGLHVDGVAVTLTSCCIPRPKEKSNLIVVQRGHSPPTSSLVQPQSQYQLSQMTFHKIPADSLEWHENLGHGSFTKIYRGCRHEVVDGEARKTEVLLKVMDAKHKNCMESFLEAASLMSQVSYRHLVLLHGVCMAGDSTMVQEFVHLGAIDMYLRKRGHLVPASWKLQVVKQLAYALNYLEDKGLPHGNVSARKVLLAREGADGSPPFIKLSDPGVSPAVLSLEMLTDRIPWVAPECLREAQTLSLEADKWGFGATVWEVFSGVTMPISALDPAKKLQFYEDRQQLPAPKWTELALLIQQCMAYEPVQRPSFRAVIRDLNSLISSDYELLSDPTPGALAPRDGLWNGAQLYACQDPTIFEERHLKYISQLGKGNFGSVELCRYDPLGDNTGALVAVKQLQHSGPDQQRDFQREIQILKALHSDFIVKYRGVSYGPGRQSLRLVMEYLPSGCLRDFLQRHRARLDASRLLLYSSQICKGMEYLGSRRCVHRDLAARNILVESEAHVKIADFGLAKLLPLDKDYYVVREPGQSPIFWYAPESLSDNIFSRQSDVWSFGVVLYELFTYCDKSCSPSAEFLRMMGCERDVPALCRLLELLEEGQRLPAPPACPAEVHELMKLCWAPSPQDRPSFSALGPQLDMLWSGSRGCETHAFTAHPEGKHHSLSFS
Sequence of TYK2 (P29597 whole entry): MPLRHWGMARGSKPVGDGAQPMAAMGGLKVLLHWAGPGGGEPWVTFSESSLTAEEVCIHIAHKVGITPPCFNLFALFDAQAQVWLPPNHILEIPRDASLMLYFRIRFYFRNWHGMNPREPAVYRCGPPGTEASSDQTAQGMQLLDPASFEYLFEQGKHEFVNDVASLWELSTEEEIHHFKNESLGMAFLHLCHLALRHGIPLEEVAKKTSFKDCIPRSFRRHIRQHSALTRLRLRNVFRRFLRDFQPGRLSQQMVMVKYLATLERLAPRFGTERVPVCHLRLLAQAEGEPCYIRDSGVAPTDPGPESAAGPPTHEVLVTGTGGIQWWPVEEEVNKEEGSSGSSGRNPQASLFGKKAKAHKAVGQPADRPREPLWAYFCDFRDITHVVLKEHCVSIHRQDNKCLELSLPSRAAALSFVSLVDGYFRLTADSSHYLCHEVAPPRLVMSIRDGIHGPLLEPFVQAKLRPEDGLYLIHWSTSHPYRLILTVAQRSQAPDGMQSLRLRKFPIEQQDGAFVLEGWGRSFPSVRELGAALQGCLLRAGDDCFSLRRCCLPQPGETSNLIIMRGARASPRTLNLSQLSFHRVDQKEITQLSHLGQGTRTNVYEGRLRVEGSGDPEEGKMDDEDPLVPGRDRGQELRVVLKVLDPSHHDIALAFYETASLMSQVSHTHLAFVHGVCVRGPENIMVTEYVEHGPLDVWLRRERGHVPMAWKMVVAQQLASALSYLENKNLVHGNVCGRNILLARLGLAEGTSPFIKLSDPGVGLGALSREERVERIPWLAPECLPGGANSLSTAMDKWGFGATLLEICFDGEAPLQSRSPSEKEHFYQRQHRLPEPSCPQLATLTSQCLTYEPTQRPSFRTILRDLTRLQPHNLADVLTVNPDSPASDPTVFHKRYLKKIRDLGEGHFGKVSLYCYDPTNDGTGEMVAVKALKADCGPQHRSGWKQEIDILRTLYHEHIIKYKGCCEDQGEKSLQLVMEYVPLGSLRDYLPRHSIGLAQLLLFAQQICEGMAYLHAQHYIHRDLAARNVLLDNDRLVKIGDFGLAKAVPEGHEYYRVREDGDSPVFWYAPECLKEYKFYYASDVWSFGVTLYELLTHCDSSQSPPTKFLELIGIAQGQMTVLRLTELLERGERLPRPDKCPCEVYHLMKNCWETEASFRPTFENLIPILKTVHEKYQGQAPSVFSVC

IC50 (JAK 2) [nM]	IC50 (JAK 3) [nM]	IC50 (JAK 1) [nM]	IC50 (TYK2) [nM]	SMILES
5.01 to 50.1	5.01 to 50.1	> 50.1	> 50.1	COC(=O)NCc1ccc(-n2nc(C)c3cnc(-c4cnn5cccnc45)cc32)c(OC)c1 [Example 69, methyl (3-methoxy-4-(3-methyl-6-(pyrazolo[1,5-a]pyrimidin-3-yl)-1H-pyrazolo[4,3-c]pyridin-1-yl)benzyl)carbamate]
≤ 5.01	≤ 5.01	≤ 5.01	5.01 to 50.1	COc1cc(NS(C)(=O)=O)ccc1-n1nc(C)c2cnc(-c3cnn4cccnc34)cc21 [Example 1, N-(3-methoxy-4-(3-methyl-6-(pyrazolo[1,5-a]pyrimidin-3-yl)-1H-pyrazolo[4,3-c]pyridin-1-yl)phenyl)methanesulfonamide]
5.01 to 50.1	5.01 to 50.1	5.01 to 50.1	> 50.1	CCCS(=O)(=O)Nc1ccc(-n2nc(C(=O)NCCCN(C)C)c3cnc(-c4cnn5cccnc45)cc32)c(OC)c1 [Example 46, N-(3-(dimethylamino)propyl)-1-(2-methoxy-4-(propylsulfonamido)phenyl)-6-(pyrazolo[1,5-a]pyrimidin-3-yl)-1H-pyrazolo[4,3-c]pyridine-3-carboxamide]
≤ 5.01	≤ 5.01	≤ 5.01	5.01 to 50.1	COc1cc(CNS(C)(=O)=O)ccc1-n1nc(NCCN2CCOCC2)c2cnc(-c3cnn4cccnc34)cc21 [Example 53, N-(3-methoxy-4-(3-((2-morpholinoethyl)amino)-6-(pyrazolo[1,5-a]pyrimidin-3-yl)-1H-pyrazolo[4,3-c]pyridin-1-yl)benzyl)methanesulfonamide]
5.01 to 50.1	5.01 to 50.1	5.01 to 50.1	5.01 to 50.1	COc1cc(NS(=O)(=O)C2CC2)ccc1-n1nc(NCCCN2CCOCC2)c2cnc(-c3cnn4cccnc34)cc21 [Example 33, N-(3-methoxy-4-(3-((3-morpholinopropyl)amino)-6-(pyrazolo[1,5-a]pyrimidin-3-yl)-1H-pyrazolo[4,3-c]pyridin-1-yl)phenyl)cyclopropanesulfonamide]
≤ 5.01	≤ 5.01	≤ 5.01	5.01 to 50.1	Cc1nn(-c2ccc(NS(C)(=O)=O)cc2OC(F)F)c2cc(-c3cnn4cccnc34)ncc12 [Example 7, N-(3-(difluoromethoxy)-4-(3-methyl-6-(pyrazolo[1,5-a]pyrimidin-3-yl)-1H-pyrazolo[4,3-c]pyridin-1-yl)phenyl)methanesulfonamide]
≤ 5.01	≤ 5.01	≤ 5.01	5.01 to 50.1	COc1cc(NS(C)(=O)=O)ccc1-n1nc(N)c2cnc(-c3cnn4cccnc34)cc21 [Example 79, N-(4-(3-amino-6-(pyrazolo[1,5-a]pyrimidin-3-yl)-1H-pyrazolo[4,3-c]pyridin-1-yl)-3-methoxyphenyl)methanesulfonamide]
5.01 to 50.1	5.01 to 50.1	≤ 5.01	5.01 to 50.1	COc1cc(NS(=O)(=O)CC(F)F)ccc1-n1nc(C)c2cnc(-c3cnn4cccnc34)cc21 [Example 73, 2,2-difluoro-N-(3-methoxy-4-(3-methyl-6-(pyrazolo[1,5-a]pyrimidin-3-yl)-1H-pyrazolo[4,3-c]pyridin-1-yl)phenyl)ethane-1-sulfonamide]
≤ 5.01	≤ 5.01	≤ 5.01	5.01 to 50.1	COc1cc(CN(C)S(C)(=O)=O)ccc1-n1nc(C)c2cnc(-c3cnn4cccnc34)cc21 [Example 65, N-(3-methoxy-4-(3-methyl-6-(pyrazolo[1,5-a]pyrimidin-3-yl)-1H-pyrazolo[4,3-c]pyridin-1-yl)benzyl)-N-methylmethanesulfonamide]
5.01 to 50.1	5.01 to 50.1	5.01 to 50.1	5.01 to 50.1	COc1cc(NS(=O)(=O)C2CC2)ccc1-n1nc(NCCN2CCCCC2)c2cnc(-c3cnn4cccnc34)cc21 [Example 36, N-(3-methoxy-4-(3-((2-(piperidin-1-yl)ethyl)amino)-6-(pyrazolo[1,5-a]pyrimidin-3-yl)-1H-pyrazolo[4,3-c]pyridin-1-yl)phenyl)cyclopropanesulfonamide]
≤ 5.01	5.01 to 50.1	≤ 5.01	5.01 to 50.1	COc1cc(NS(=O)(=O)c2cnn(C)c2)ccc1-n1nc(C)c2cnc(-c3cnn4cccnc34)cc21 [Example 10, N-(3-methoxy-4-(3-methyl-6-(pyrazolo[1,5-a]pyrimidin-3-yl)-1H-pyrazolo[4,3-c]pyridin-1-yl)phenyl)-1-methyl-1H-pyrazole-4-sulfonamide]
≤ 5.01	≤ 5.01	≤ 5.01	5.01 to 50.1	COc1cc(NS(C)(=O)=O)ccc1-n1nc(NCCN(C)CCF)c2cnc(-c3cnn4cccnc34)cc21 [Example 39, N-(4-(3-((2-((2-fluoroethyl)(methyl)amino)ethyl)amino)-6-(pyrazolo[1,5-a]pyrimidin-3-yl)-1H-pyrazolo[4,3-c]pyridin-1-yl)-3-methoxyphenyl)methanesulfonamide]
5.01 to 50.1	5.01 to 50.1	5.01 to 50.1	> 50.1	COc1cc(NS(=O)(=O)C2CC2)cnc1-n1nc(NCCN(C)C)c2cnc(-c3cnn4cccnc34)cc21 [Example 29, N-(6-(3-((2-(dimethylamino)ethyl)amino)-6-(pyrazolo[1,5-a]pyrimidin-3-yl)-1H-pyrazolo[4,3-c]pyridin-1-yl)-5-methoxypyridin-3-yl)cyclopropanesulfonamide]
≤ 5.01	≤ 5.01	≤ 5.01	5.01 to 50.1	COc1cc(NS(C)(=O)=O)ccc1-n1nc(NCCN2CCOCC2)c2cnc(-c3cnn4cccnc34)cc21 [Example 24, N-(3-methoxy-4-(3-((2-morpholinoethyl)amino)-6-(pyrazolo[1,5-a]pyrimidin-3-yl)-1H-pyrazolo[4,3-c]pyridin-1-yl)phenyl)methanesulfonamide]
≤ 5.01	≤ 5.01	≤ 5.01	5.01 to 50.1	CNc1nn(-c2cc(Cl)c(CNS(C)(=O)=O)cc2OC)c2cc(-c3cnn4cccnc34)ncc12 [Example 57, N-(2-chloro-5-methoxy-4-(3-(methylamino)-6-(pyrazolo[1,5-a]pyrimidin-3-yl)-1H-pyrazolo[4,3-c]pyridin-1-yl)benzyl)methanesulfonamide]
≤ 5.01	≤ 5.01	≤ 5.01	5.01 to 50.1	COc1cc(NS(=O)(=O)CC2CC2)ccc1-n1nc(C)c2cnc(-c3cnn4cccnc34)cc21 [Example 5, 1-cyclopropyl-N-(3-methoxy-4-(3-methyl-6-(pyrazolo[1,5-a]pyrimidin-3-yl)-1H-pyrazolo[4,3-c]pyridin-1-yl)phenyl)methanesulfonamide]
≤ 5.01	≤ 5.01	≤ 5.01	5.01 to 50.1	COc1cc(CNS(C)(=O)=O)ccc1-n1nc(NCCN(C)C)c2cnc(-c3cnn4cccnc34)cc21 [Example 56, N-(4-(3-((2-(dimethylamino)ethyl)amino)-6-(pyrazolo[1,5-a]pyrimidin-3-yl)-1H-pyrazolo[4,3-c]pyridin-1-yl)-3-methoxybenzyl)methanesulfonamide]
